The values that follow come from patent US20110020801A1, “Carboxylesterase-1 Polymorphisms and Methods of Use Therefor” (priority 2007, published 2011).

One data set deals with T1, p.Gly143Glu CES1 (Homo sapiens, UniProt P23141, G143E).
T1 construct: inserting a stop codon after CES1A1 gene to yield the constructs expressing CES1 without V5-His tag; expressed in transfected cells
T1 sequence (P23141 18-567 G143E/Y526T): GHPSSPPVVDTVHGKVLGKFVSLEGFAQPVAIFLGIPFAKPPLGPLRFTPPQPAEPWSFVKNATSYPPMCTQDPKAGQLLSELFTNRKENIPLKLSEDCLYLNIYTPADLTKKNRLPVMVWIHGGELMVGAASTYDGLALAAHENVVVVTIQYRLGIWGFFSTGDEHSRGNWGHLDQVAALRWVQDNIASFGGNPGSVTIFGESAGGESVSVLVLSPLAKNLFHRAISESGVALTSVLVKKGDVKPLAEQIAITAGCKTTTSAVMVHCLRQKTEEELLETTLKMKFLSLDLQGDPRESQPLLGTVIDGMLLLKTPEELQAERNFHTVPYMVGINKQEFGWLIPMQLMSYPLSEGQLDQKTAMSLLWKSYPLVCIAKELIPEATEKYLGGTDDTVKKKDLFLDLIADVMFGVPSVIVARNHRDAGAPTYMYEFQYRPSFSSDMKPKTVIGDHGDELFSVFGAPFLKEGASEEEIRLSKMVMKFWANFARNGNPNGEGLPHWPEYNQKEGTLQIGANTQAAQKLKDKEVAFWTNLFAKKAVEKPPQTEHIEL
Briefly: MPH hydrolysis to ritalinic acid by S9 of cells expressing p.Gly143Glu CES1 (HPLC). The data set is classed as biochemical. To be noted: S9 500 μg/ml, even at very high S9 concentration (2 mg/ml); 37° C., 2 h. From the text:
The desired plasmid was designed such that the recombinant CES1 would be expressed in mammalian cells with a V5-His tag to facilitate detection and purification. Additionally, another plasmid was generated by inserting a stop codon after CES1A1 gene to yield the constructs expressing CES1 without V5-His tag. […] Thus, only untagged CES1 and its associated mutants were used in the enzymatic hydrolysis study. Two constructs of CES1 mutations, p.Gly143Glu and p.Asp260fs, were generated using a site-directed mutagenesis assay. All constructs were subjected to DNA sequencing analysis to confirm that the desired plasmids were obtained. The identified CES1A1 plasmids (WT, p.Gly143Glu, and p.Asp260fs) were co-transfected with pOG44 plasmid at a ratio of 1:10 into Flp-In™-293 cells using […] (Invitrogen, Carlsbad, Calif.). Additionally, the self-ligated pcDNA5/FRT/V5-His-TOPO® vector was included as a vector control. Twenty-four hours after transfection, cells were washed with PBS and fresh complete medium (Dulbecco's modified Eagle's medium containing 10% fetal bovine serum) was added. […]
After attaining approximately 95% confluence, cells were rinsed and harvested in PBS containing 10 mM HEPES (pH 7.4). […] The protein concentration was determined using a Pierce BCA assay kit (Rockford, Ill.).
For the study of MPH hydrolysis, the reaction was conducted in 1.5 mL eppendorf tubes with a final S9 concentration of 0.5 mg/mL at a total volume of 100 μL. […] Concentrations of the primary phase I MPH metabolite produced via hydrolysis, ritalinic acid (RA), was determined utilizing an established HPLC method described below.
Thus, following the enzymatic assay, the values determined for spontaneous PNP and RA hydrolysis were subtracted from the total PNP and RA production. […] All collected data were fit to the Michaelis-Menten equation, and kinetic parameters were calculated using nonlinear regression analysis with Graphpad Prism software (Graphpad Software Inc., San Diego, Calif.) […]

Data set [1] in a line: Pharmacokinetic study of orally administered racemic MPH in normal volunteers. The data set is classed as in vivo, human. To be noted: human, plasma. Here is the method: Analysis of Pharmacokinetic, Hemodynamic, and Statistical Data. Standard pharmacokinetic analyses were applied to the MPH data using WinNonLin software (Pharsight, Mountainview, Calif.) and are described in a previous publication.^10 The AUC, Cmax, and t1/2 were analyzed using the Extreme Studentized Deviate (ESD) single-outlier procedure^12 to determine whether the parameter measurements for the slow metabolizer constituted true statistical outliers. For each parameter, the ESD procedure confirmed the measurement as an outlier at the p<0.01 level. Because this procedure is known to be conservative, the data from the aberrant metabolizer were reassessed using a similar procedure with respect to the normal participants only.

[2] abbreviates: mean ±SD of all other subjects, single oral 0.3 mg/kg racemic MPH.

Like-named read-outs stand apart in the source and are kept apart here.

`COC(=O)[C@H](c1ccccc1)[C@H]1CCCCN1` [d-MPH, methylphenidate]: the “catalytic activity towards MPH hydrolysis” value on p.Gly143Glu CES1 is “failed to show any hydrolytic activity”. Further, the AUC in data set [1] (oral, 0.3 mg/kg, Table 1, 19 study peers, read-out: AUC, Mean (±SD)) was found to be 78.6 ng·h/mL; in data set [1] (male, oral, 0.3 mg/kg, Table 1, aberrant metabolizer, read-out: AUC, Outlier) it was 209 ng·h/mL. In addition, the Cmax turned out to be 13.8 ng/mL in data set [1] (oral, 0.3 mg/kg, Table 1, 19 study peers, read-out: Cmax, Mean (±SD)); 15 ± 3 ng/mL in data set [1] (mean ±SD of all other subjects, single oral 0.3 mg/kg racemic MPH, read-out: Cmax); 36.7 ng/mL in data set [1] (male, oral, 0.3 mg/kg, Table 1, aberrant metabolizer, read-out: Cmax, Outlier); 37 ng/mL in data set [1] (male, slow metabolizer, single oral 0.3 mg/kg racemic MPH, read-out: Cmax). Besides, the half-life is 3 h in data set [1] (oral, 0.3 mg/kg, Table 1, 19 study peers, read-out: t1/2, Mean (±SD) (converted)); 2.8 ± 0.4 h in data set [1] (mean ±SD of all other subjects, single oral 0.3 mg/kg racemic MPH, read-out: t1/2 (converted)); 5.4 h in data set [1] (male, oral, 0.3 mg/kg, Table 1, aberrant metabolizer, read-out: t1/2, Outlier (converted)); 5.4 h in data set [1] (male, slow metabolizer, single oral 0.3 mg/kg racemic MPH, read-out: t1/2 (converted)). Also, the Tmax in data set [1] (setting [2]) is 2.3 ± 0.8 h; in data set [1] (male, slow metabolizer, single oral 0.3 mg/kg racemic MPH), 3 h. In addition, the total exposure AUC(0-inf) in data set [1] (setting [2]) turned out to be 83 ± 22 ng·h/mL; in data set [1] (male, slow metabolizer (heterozygous for p.Gly143Glu and p.Asp260fs), single oral 0.3 mg/kg racemic MPH) it was 209 ng·h/mL.
